The record followed here is US20250186425A1, “PPARG INVERSE AGONISTS AND USES THEREOF” (Flare Therapeutics Inc., priority 2022, published 2025).

What is called inhibition is the percentage by which the read-out fell short of the control. A lower inhibition goes with little suppression. For orientation: EC50 means the concentration giving half of the maximal effect.

In assay [1] the test system is HT1197 (RXRA S427F mutation) cells. The assay can be described thus: Bladder cancer pharmacodynamic assay, HT1197 cell assay (qPCR of PPARG target gene ANGPTL4). The settings on record: Homo sapiens; for inhibition at 0.1 µM: 100 nM compound, 24 hours, relative to DMSO control; for EC50: 24 hours treatment, qPCR. The assay is classed as cell-based. How it is done:
5637 (PPARG amplified) and HT1197 (RXRA S427F mutation) cells were used for assessment of modulation of PPARG target genes using quantitative PCR. Cells were treated for 24 hours with PPARG inverse agonists prior to analysis of FABP4 (IDT, Cat: Hs.PT 58.20106818) and ANGPTL4 (IDT, Cat: Hs.PT 58.25480012) expression, with expression of the housekeeping gene TBP (IDT, Cat: Hs.PT 58v.39858774) used to normalize expression across samples. Quantitative PCR was performed using an ABI QuantStudio 7 Flex Reaction system. Data were analyzed and reported relative to DMSO control using the comparative Ct method […].
Background: Real-time PCR tracks product formation cycle by cycle.

Assay [2] concerns the target T1, PPARG/RXRA LBD heterodimer (Homo sapiens (Human), UniProt P37231). The assay can be described thus: PPARG-MED1 blockade assay (TR-FRET). The assay is classed as biochemical. The following applies: for EC50: TR-FRET, biotinylated MED1 LxxLL peptide, 80 nM Rosiglitazone, 3 hours, IC50; for % MED1 blockade relative to GW9662: maximal extent, GW9662 defined as 100%, DMSO 0%. How it is done: Compound potency (IC50) and maximal extent of MED1 repulsion to PPARG were assessed a TR-FRET binding assay measuring association of a biotinylated MED1 LxxLL peptide (Biotin-[…]-amide) to PPARG/RXRA LBD heterodimer. Specifically, a 20 microliters of TR-FRET master mix consisting of 2 nM WT PPARG LBD (e. coli expressed, His-TEV-Q203-Y477; Uniprot ID P37231-2), 2 nM WT RXRA LBD (e. coli expressed, Flag-TEV-E228-T462; […]. Mixtures were incubated for 3 hours and read in an EnVision plate reader (Perkin Elmer) with Ex/Em 615/665. To determine the potency (IC50) and extent of MED1 repulsion, TR-FRET ratios were normalized to the average ratio of DMSO control wells (0%) and to the average minimum ratio for positive control compound (GW9662 (2-chloro-5-nitrobenzanilide); defined as 100%) in CDD Vault and analyzed using the Levenberg-Marquardt algorithm.
For orientation: TR-FRET usually uses a lanthanide donor and a delayed reading to cut background.

For assay [3], the target named is T1, PPARG/RXRA LBD heterodimer. The assay can be described thus: PPARG-NCOR1 recruitment assay (TR-FRET). The assay is classed as biochemical. The following applies: for EC50: TR-FRET, biotinylated NCOR1 ID2 peptide, 80 nM Rosiglitazone, 3 hours, read-out: PPARG-NCOR recruitment assay EC50; for % NCOR recruitment relative to T907: maximal extent, T0070907 defined as 100%, DMSO 0%. As for the experimental part: Compound potency (EC50) and maximal extent of NCOR1 recruitment to PPARG were assessed a TR-FRET binding assay measuring association of a biotinylated NCOR1 ID2 peptide (Biotin-[…]-amide) to PPARG/RXRA LBD heterodimer. Specifically, a 20 microliters of TR-FRET master mix consisting of 2 nM WT PPARG LBD (e. coli expressed, His-TEV-Q203-Y477; Uniprot ID P37231-2), 2 nM WT RXRA LBD or mutant S427F RXRA LBD (e. coli expressed, Flag-TEV-E228-T462; […]. Mixtures were incubated for 3 hours and read in an EnVision plate reader (Perkin Elmer) with Ex/Em 615/665. To determine the potency (EC50) and extent of NCOR1 recruitment, TR-FRET ratios were normalized to the average ratio of DMSO control wells (0%) and to the average maximum ratio for positive control compound (T0070907 (2-chloro-5-nitro-N-4-pyridinyl-benzamide); defined as 100%) in CDD Vault and analyzed using the Levenberg-Marquardt algorithm.

T1 sequence (P37231 whole entry, looked up, the tested form may be a part): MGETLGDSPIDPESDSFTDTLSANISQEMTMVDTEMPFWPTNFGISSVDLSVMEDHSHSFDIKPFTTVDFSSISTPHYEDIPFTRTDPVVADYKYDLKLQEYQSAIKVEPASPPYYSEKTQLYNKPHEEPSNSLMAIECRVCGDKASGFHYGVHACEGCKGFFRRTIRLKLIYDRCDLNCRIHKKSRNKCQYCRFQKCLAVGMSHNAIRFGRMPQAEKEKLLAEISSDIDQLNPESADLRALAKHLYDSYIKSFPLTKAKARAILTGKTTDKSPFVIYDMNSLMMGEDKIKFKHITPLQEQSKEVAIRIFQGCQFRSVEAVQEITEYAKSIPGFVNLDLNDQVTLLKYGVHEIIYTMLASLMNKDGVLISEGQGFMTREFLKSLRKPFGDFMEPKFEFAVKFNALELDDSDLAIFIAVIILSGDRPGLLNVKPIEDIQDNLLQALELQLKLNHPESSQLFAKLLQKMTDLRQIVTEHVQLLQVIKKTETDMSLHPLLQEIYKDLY
T1 sequence (P19793 whole entry partner, looked up, the tested form may be a part): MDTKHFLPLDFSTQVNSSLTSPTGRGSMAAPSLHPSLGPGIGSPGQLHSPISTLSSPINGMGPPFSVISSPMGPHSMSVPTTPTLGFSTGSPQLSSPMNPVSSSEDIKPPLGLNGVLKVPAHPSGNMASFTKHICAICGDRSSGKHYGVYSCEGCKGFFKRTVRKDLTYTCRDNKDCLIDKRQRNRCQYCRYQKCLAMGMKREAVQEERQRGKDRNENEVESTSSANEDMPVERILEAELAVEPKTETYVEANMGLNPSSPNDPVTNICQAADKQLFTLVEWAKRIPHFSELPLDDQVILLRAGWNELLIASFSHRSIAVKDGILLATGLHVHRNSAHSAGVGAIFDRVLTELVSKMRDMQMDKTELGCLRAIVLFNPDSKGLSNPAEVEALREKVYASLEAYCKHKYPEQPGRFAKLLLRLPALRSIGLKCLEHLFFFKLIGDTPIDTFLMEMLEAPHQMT

In the case of `N#Cc1ccc(Cl)c(-c2cc(=O)c3c(Oc4ccc(Cl)cc4)cc(F)cc3[nH]2)c1` [Example 2, 4-Chloro-3-(5-(4-Chlorophenoxy)-7-Fluoro-4-Oxo-1,4-Dihydroquinolin-2-Yl)Benzonitrile], the inhibition at 0.1 µM in assay [1] stood at 91%. In assay [2], the EC50 was 100 to 1000 nM and the “% MED1 blockade relative to GW9662” value was “B (B: <100% (<the control compound, GW9662))”. Further, in assay [3], the EC50 fell in the range of 100 to 1000 nM and the “% NCOR recruitment relative to T907” value was “A (A: >100% (>the control compound, T907))”.
`N#Cc1ccc(Cl)c(-c2cc(=O)c3c(OCc4ccc(Cl)cc4)cc(F)cc3[nH]2)c1` [Example 6, 4-Chloro-3-(5-((4-Chlorobenzyl)Oxy)-7-Fluoro-4-Oxo-1,4-Dihydroquinolin-2-Yl)Benzonitrile] returned an inhibition at 0.1 µM in assay [1] of 25%. Besides, in assay [2], the EC50 is 100 to 1000 nM and the “% MED1 blockade relative to GW9662” value was “A (A: >100% (>the control compound, GW9662))”. Besides, in assay [3], the EC50 was 100 to 1000 nM and the “% NCOR recruitment relative to T907” value is “A (A: >100% (>the control compound, T907))”.
As for `Cn1cc(Oc2cc(F)cc3[nH]c(-c4cc(C#N)ccc4S(C)(=O)=O)cc(=O)c23)cn1` [Example 3, 3-(7-Fluoro-5-((1-Methyl-1H-Pyrazol-4-Yl)Oxy)-4-Oxo-1,4-Dihydroquinolin-2-Yl)-4-(Methylsulfonyl)Benzonitrile], the inhibition at 0.1 µM in assay [1] was found to be 82%. In addition, in assay [2], the 50% effective concentration (EC50) was in the range of 1000 to 10000 nM and the “% MED1 blockade relative to GW9662” value is recorded as “A (A: >100% (>the control compound, GW9662))”. Besides, in assay [3], the EC50 was in the range of 1000 to 10000 nM and the “% NCOR recruitment relative to T907” value was “A (A: >100% (>the control compound, T907))”.
For the compound `Cn1cc(Oc2cc(Cl)cc3[nH]c(-c4cc(C#N)ccc4S(C)(=O)=O)cc(=O)c23)cn1` [Example 4, 3-(7-Chloro-5-((1-Methyl-1H-Pyrazol-4-Yl)Oxy)-4-Oxo-1,4-Dihydroquinolin-2-Yl)-4-(Methylsulfonyl)Benzonitrile], in assay [1], at 0.1 µM the inhibition was 86% and the midpoint of the response, the EC50, lay at 0.35 nM. Moreover, in assay [2], the EC50 was 100 to 1000 nM and the “% MED1 blockade relative to GW9662” value is listed as “A (A: >100% (>the control compound, GW9662))”. Besides, in assay [3], the EC50 lay in the range of 100 to 1000 nM and the “% NCOR recruitment relative to T907” value is listed as “A (A: >100% (>the control compound, T907))”.
Consider `CS(=O)(=O)c1ccc(C#N)cc1-c1cc(=O)c2c(Cc3ccc(Cl)cc3)cc(F)cc2[nH]1` [Example 7, 3-(5-(4-Chlorobenzyl)-7-Fluoro-4-Oxo-1,4-Dihydroquinolin-2-Yl)-4-(Methylsulfonyl)Benzonitrile], for which the inhibition at 0.1 µM in assay [1] was found to be 90%. In assay [2], the EC50 was in the range of 100 to 1000 nM and the “% MED1 blockade relative to GW9662” value is “A (A: >100% (>the control compound, GW9662))”. In addition, in assay [3], the EC50 lay within 10 to 100 nM and the “% NCOR recruitment relative to T907” value is recorded as “A (A: >100% (>the control compound, T907))”.
As for `CS(=O)(=O)c1ccc(C#N)cc1-c1cc(=O)c2c(Oc3ccc(Cl)cc3)cc(F)cc2[nH]1` [Example 1, 3-(5-(4-Chlorophenoxy)-7-Fluoro-4-Oxo-1,4-Dihydroquinolin-2-Yl)-4-(Methylsulfonyl)Benzonitrile], in assay [1], the inhibition at 0.1 µM was determined as 85% and the EC50 worked out at 0.8 nM. In assay [2], the EC50 lay in the range of 100 to 1000 nM and the “% MED1 blockade relative to GW9662” value was “A (A: >100% (>the control compound, GW9662))”. For the same compound, in assay [3], the EC50 lay within 100 to 1000 nM and the “% NCOR recruitment relative to T907” value is given as “A (A: >100% (>the control compound, T907))”.
Compound `N#Cc1ccc(Cl)c(-c2cc(=O)c3c(Oc4ccc(Cl)nc4)cc(F)cc3[nH]2)c1` [Example 5, 4-Chloro-3-(5-((6-Chloropyridin-3-Yl)Oxy)-7-Fluoro-4-Oxo-1,4-Dihydroquinolin-2-Yl)Benzonitrile] returned an inhibition at 0.1 µM in assay [1] of 77%. Besides, in assay [2], the EC50 is 100 to 1000 nM and the “% MED1 blockade relative to GW9662” value is on record as “A (A: >100% (>the control compound, GW9662))”. In assay [3], the EC50 lay in the range of 100 to 1000 nM and the “% NCOR recruitment relative to T907” value was “A (A: >100% (>the control compound, T907))”.
